Legend:
[1] = system: U-698-M; assay: Bliss excess, mean over the matrix (fraction); higher = more synergy; details: U-[…], B-Cell Non-Hodgkin's Lymphoma
How it was run: (§1)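 Cell lines grown in DMEM/F12 or RPMI with 10% FBS were plated in 1536-well plates and held 24 hours at 37°C, 5% CO2 before 72 hours of exposure to two-drug dose matrices, with DMSO typically at 0.2%. CellTiter-Glo 2.0 luminescence gave viability, which was converted to inhibition. Vehicle wells were set to 0 and blank wells to 1. Combination Emax is the second-highest inhibition in the matrix, and Bliss excess is the observed combination effect minus the expected EA + EB − EA·EB, where EA and EB are the single-agent effects.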

[2] = system: U-698-M; assay: combination Emax (second highest fraction inhibited in the dose matrix, 72 h); higher = more inhibition; details: B-Cell Non-Hodgkin's Lymphoma
How it was run: as §1

[3] = first compound max 10 µM, partner max 1 µM, 7x7
[4] = first compound max 1 µM, partner max 3 µM, 7x7
[5] = first compound max 10 µM, partner max 5 µM, 7x7
[6] = first compound max 1 µM, partner max 10 µM, 7x7
[7] = first compound max 1 µM, partner max 1 µM
[8] = first compound max 10 µM, partner max 10 µM, 7x7
[9] = first compound max 10 µM, partner max 0.3 µM, 7x7
[10] = first compound max 1 µM, partner max 1 µM, 7x7
[11] = first compound max 1 µM, partner max 0.3 µM
[12] = first compound max 10 µM, partner max 2 µM, 7x7
[13] = first compound max 3 µM, partner max 3 µM
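Throughout, for Bliss excess, mean over the matrix: after 72 h of two-drug dosing.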

With `NC1(C(=O)N[C@@H](CCO)c2ccc(Cl)cc2)CCN(c2ncnc3[nH]ccc23)CC1` [Capivasertib] + COc1nnc2ccc(N3CCC(c4ccc(OCCN5CCN(C)C(=O)[C@H]5C)cc4)CC3)nn12 [AZD5153] the Bliss excess [1, 3] was -0.0646 and the “combination Emax” value [2, 3] was 0.768.
For `CN(CCO)CC[C@H](CSc1ccccc1)Nc1ccc(S(=O)(=O)NC(=O)c2ccc(N3CCC([C@@H](O)c4ccccc4-c4ccc(Cl)cc4)CC3)cc2)cc1S(=O)(=O)C(F)(F)F` [AZD4320] + CC(=O)O[C@H]1C(=O)[C@@]2(C)[C@H]([C@H](OC(=O)c3ccccc3)[C@]3(O)C[C@H](OC(=O)[C@H](O)[C@@H](NC(=O)c4ccccc4)c4ccccc4)C(C)=C1C3(C)C)[C@]1(OC(C)=O)CO[C@@H]1C[C@@H]2O [Paclitaxel], the Bliss excess [1, 4] was -0.0109 and the “combination Emax” value ([2]; first compound max 1 µM, partner max 3 µM, 7x7, may be a limit of the assay) was 1.
For `O=C(c1cc(Cc2n[nH]c(=O)c3ccccc23)ccc1F)N1CCN(C(=O)C2CC2)CC1` [Olaparib] + CC1(C)CCC(CN2CCN(c3ccc(C(=O)NS(=O)(=O)c4ccc(NCC5CCOCC5)c([N+](=O)[O-])c4)c(Oc4cnc5[nH]ccc5c4)c3)CC2)=C(c2ccc(Cl)cc2)C1 [Venetoclax], the Bliss excess [1, 3] was -0.0064 and the “combination Emax” value [2, 3] was 0.192.
`Cc1nc(-c2cn3c(n2)-c2ccc(-c4cnn(C(C)(C)C(N)=O)c4)cc2OCC3)n(C(C)C)n1` [Taselisib] + O=C(Nc1ccc2[nH]nc(-c3ccncc3)c2c1)[C@@H]1CCN(CC(=O)N2CCN(c3ccc(-c4ncccn4)cc3)CC2)C1 [SCH772984] was tested, and the Bliss excess [1, 5] was -0.0189 and the “combination Emax” value [2, 5] was 0.606.
`COc1cccc(OCCCN)c1-c1cc(Nc2cnc(C#N)cn2)n[nH]1` [Prexasertib] + Cc1cc2ncnn2cc1Nc1ncc2c(n1)n(C1CCOCC1)c(=O)n2C [AZD7648] was tested, and the Bliss excess [1, 6] was -0.0029 and the “combination Emax” value [2, 6] was 0.975.
For `COc1nnc2ccc(N3CCC(c4ccc(OCCN5CCN(C)C(=O)[C@H]5C)cc4)CC3)nn12` [AZD5153] + C=CCn1c(=O)c2cnc(Nc3ccc(N4CCN(C)CC4)cc3)nc2n1-c1cccc(C(C)(C)O)n1 [AZD1775], the Bliss excess [1, 7] was -0.0574 and the “combination Emax” value [2, 7] was 0.961.
In the case of `CS(=O)(=O)CCNCc1ccc(-c2ccc3ncnc(Nc4ccc(OCc5cccc(F)c5)c(Cl)c4)c3c2)o1` [Lapatinib] + C[C@@H](Oc1cc(-c2cnn(C3CCNCC3)c2)cnc1N)c1c(Cl)ccc(F)c1Cl [Crizotinib], the Bliss excess [1, 8] was -0.0653 and the “combination Emax” value [2, 8] was 0.934.
For `C[C@@H]1COCCN1c1cc(C2([S@](C)(=N)=O)CC2)nc(-c2ccnc3[nH]ccc23)n1` [AZD6738] + Nc1ccn([C@@H]2O[C@H](CO)[C@@H](O)C2(F)F)c(=O)n1 [Gemcitabine], the Bliss excess [1, 9] was 0.0526 and the “combination Emax” value [2, 9] was 0.871.
With `Cc1c2c(nn1C)CSCc1cc(n(C)n1)CSc1cc(c3ccccc3c1)OCCCc1c(C(=O)O)n(C)c3c-2c(Cl)ccc13` [AZD5991] + Cc1cc2ncnn2cc1Nc1ncc2c(n1)n(C1CCOCC1)c(=O)n2C [AZD7648] the Bliss excess [1, 6] was 0.0183 and the “combination Emax” value ([2]; first compound max 1 µM, partner max 10 µM, 7x7, may be a limit of the assay) was 1.
In the case of `CN(CCO)CC[C@H](CSc1ccccc1)Nc1ccc(S(=O)(=O)NC(=O)c2ccc(N3CCC([C@@H](O)c4ccccc4-c4ccc(Cl)cc4)CC3)cc2)cc1S(=O)(=O)C(F)(F)F` [AZD4320] + C1CN(CCC1(C(=O)N[C@@H](CCO)C2=CC=C(C=C2)Cl)N)C3=NC=NC4=C3C=CN4 [Capivasertib], the Bliss excess [1, 4] was 0.0056 and the “combination Emax” value [2, 4] was 0.272.
For `C[C@@H]1COCCN1c1cc(C2([S@](C)(=N)=O)CC2)nc(-c2ccnc3[nH]ccc23)n1` [AZD6738] + O=C(c1cc(Cc2n[nH]c(=O)c3ccccc23)ccc1F)N1CCN(C(=O)C2CC2)CC1 [Olaparib], the Bliss excess [1, 8] was -0.0503 and the “combination Emax” value [2, 8] was 0.934.
In the case of `COc1nnc2ccc(N3CCC(c4ccc(OCCN5CCN(C)C(=O)[C@H]5C)cc4)CC3)nn12` [AZD5153] + CC1(C)CCC(CN2CCN(c3ccc(C(=O)NS(=O)(=O)c4ccc(NCC5CCOCC5)c([N+](=O)[O-])c4)c(Oc4cnc5[nH]ccc5c4)c3)CC2)=C(c2ccc(Cl)cc2)C1 [Venetoclax], the Bliss excess [1, 10] was -0.0463 and the “combination Emax” value [2, 10] was 0.671.
In the case of `C=CCn1c(=O)c2cnc(Nc3ccc(N4CCN(C)CC4)cc3)nc2n1-c1cccc(C(C)(C)O)n1` [AZD1775] + Nc1ccn([C@@H]2O[C@H](CO)[C@@H](O)C2(F)F)c(=O)n1 [Gemcitabine], the Bliss excess [1, 11] was 0.116 and the “combination Emax” value [2, 11] was 0.956.
For `O=C(c1cc(Cc2n[nH]c(=O)c3ccccc23)ccc1F)N1CCN(C(=O)C2CC2)CC1` [Olaparib] + CN(CC[C@H](CSC1=CC=CC=C1)NC2=C(C=C(C=C2)S(=O)(=O)NC(=O)C3=CC=C(C=C3)N4CCC(CC4)[C@H](C5=CC=CC=C5C6=CC=C(C=C6)Cl)O)S(=O)(=O)C(F)(F)F)CCO [AZD4320], the Bliss excess [1, 3] was -0.0494 and the “combination Emax” value [2, 3] was 0.135.
In the case of `O=C(c1cc(Cc2n[nH]c(=O)c3ccccc23)ccc1F)N1CCN(C(=O)C2CC2)CC1` [Olaparib] + Cc1c2c(nn1C)CSCc1cc(n(C)n1)CSc1cc(c3ccccc3c1)OCCCc1c(C(=O)O)n(C)c3c-2c(Cl)ccc13 [AZD5991], the Bliss excess [1, 3] was 0.0244 and the “combination Emax” value [2, 3] was 0.987.
`CS(=O)(=O)CCNCc1ccc(-c2ccc3ncnc(Nc4ccc(OCc5cccc(F)c5)c(Cl)c4)c3c2)o1` [Lapatinib] + NC1(c2ccc(-c3nc4ccn5c(=O)[nH]nc5c4cc3-c3ccccc3)cc2)CCC1 [MK-2206] was tested, and the Bliss excess [1, 8] was 0.0097 and the “combination Emax” value [2, 8] was 0.905.
`Cn1cnc2c(F)c(Nc3ccc(Br)cc3Cl)c(C(=O)NOCCO)cc21` [Selumetinib] + CC(C)n1c(=O)n(C)c2cnc3cc(F)c(-c4ccc(OCCCN5CCCCC5)nc4)cc3c21 [AZD1390] was tested, and the Bliss excess [1, 9] was -0.0149 and the “combination Emax” value [2, 9] was 0.109.
In the case of `CC(=O)c1c(C)c2cnc(Nc3ccc(N4CCNCC4)cn3)nc2n(C2CCCC2)c1=O` [Palbociclib] + Cn1cnc2c(F)c(Nc3ccc(Br)cc3Cl)c(C(=O)NOCCO)cc21 [Selumetinib], the Bliss excess [1, 8] was -0.0483 and the “combination Emax” value [2, 8] was 0.583.
With `NC1(C(=O)N[C@@H](CCO)c2ccc(Cl)cc2)CCN(c2ncnc3[nH]ccc23)CC1` [Capivasertib] + CC(=O)c1c(C)c2cnc(Nc3ccc(N4CCNCC4)cn3)nc2n(C2CCCC2)c1=O [Palbociclib] the Bliss excess [1, 8] was 0.0018 and the “combination Emax” value [2, 8] was 0.532.
For `C[C@@H](Oc1cc(-c2cnn(C3CCNCC3)c2)cnc1N)c1c(Cl)ccc(F)c1Cl` [Crizotinib] + CC1=C(C(=CC=C1)Cl)NC(=O)C2=CN=C(S2)NC3=CC(=NC(=N3)C)N4CCN(CC4)CCO [Dasatinib], the Bliss excess [1, 12] was -0.0005 and the “combination Emax” value [2, 12] was 0.861.
`COc1nnc2ccc(N3CCC(c4ccc(OCCN5CCN(C)C(=O)[C@H]5C)cc4)CC3)nn12` [AZD5153] + Cn1cnc2c(F)c(Nc3ccc(Br)cc3Cl)c(C(=O)NOCCO)cc21 [Selumetinib] was tested, and the Bliss excess [1, 6] was -0.0573 and the “combination Emax” value [2, 6] was 0.622.
`CN(CCO)CC[C@H](CSc1ccccc1)Nc1ccc(S(=O)(=O)NC(=O)c2ccc(N3CCC([C@@H](O)c4ccccc4-c4ccc(Cl)cc4)CC3)cc2)cc1S(=O)(=O)C(F)(F)F` [AZD4320] + Cc1cc2ncnn2cc1Nc1ncc2c(n1)n(C1CCOCC1)c(=O)n2C [AZD7648] was tested, and the Bliss excess [1, 6] was -0.016 and the “combination Emax” value [2, 6] was 0.415.
In the case of `CN(C)CCCOc1ccc(-c2ccc3ncc4c(c3c2)n(C2CCOCC2)c(=O)n4C)cn1` [AZD0156] + C[C@@H]1COCCN1C2=NC(=NC(=C2)C3(CC3)[S@](=N)(=O)C)C4=C5C=CNC5=NC=C4 [AZD6738], the Bliss excess [1, 6] was 0.0473 and the “combination Emax” value [2, 6] was 0.978.
For `C=CCn1c(=O)c2cnc(Nc3ccc(N4CCN(C)CC4)cc3)nc2n1-c1cccc(C(C)(C)O)n1` [AZD1775] + C1CN(CCC1(C(=O)N[C@@H](CCO)C2=CC=C(C=C2)Cl)N)C3=NC=NC4=C3C=CN4 [Capivasertib], the Bliss excess [1, 13] was -0.0654 and the “combination Emax” value [2, 13] was 0.959.
In the case of `CS(=O)(=O)CCNCc1ccc(-c2ccc3ncnc(Nc4ccc(OCc5cccc(F)c5)c(Cl)c4)c3c2)o1` [Lapatinib] + Cn1cnc2c(F)c(Nc3ccc(Br)cc3Cl)c(C(=O)NOCCO)cc21 [Selumetinib], the Bliss excess [1, 8] was -0.0215 and the “combination Emax” value [2, 8] was 0.585.
In the case of `CC(=O)Nc1cccc(-n2c(=O)n(C3CC3)c(=O)c3c(Nc4ccc(I)cc4F)n(C)c(=O)c(C)c32)c1` [Trametinib] + Cc1nc(-c2cn3c(n2)-c2ccc(-c4cnn(C(C)(C)C(N)=O)c4)cc2OCC3)n(C(C)C)n1 [Taselisib], the Bliss excess [1, 6] was -0.0211 and the “combination Emax” value [2, 6] was 0.416.
In the case of `NC1(C(=O)N[C@@H](CCO)c2ccc(Cl)cc2)CCN(c2ncnc3[nH]ccc23)CC1` [Capivasertib] + CCN(CCO)CCCOc1ccc2c(Nc3cc(CC(=O)Nc4cccc(F)c4)[nH]n3)ncnc2c1 [AZD2811], the Bliss excess [1, 3] was -0.0021 and the “combination Emax” value [2, 3] was 0.5.
For `Cc1c2c(nn1C)CSCc1cc(n(C)n1)CSc1cc(c3ccccc3c1)OCCCc1c(C(=O)O)n(C)c3c-2c(Cl)ccc13` [AZD5991] + C=CCn1c(=O)c2cnc(Nc3ccc(N4CCN(C)CC4)cc3)nc2n1-c1cccc(C(C)(C)O)n1 [AZD1775], the “combination Emax” value ([2]; first compound max 1 µM, partner max 1 µM, may be a limit of the assay) was 1.
